In US7138361B2, “Herbicidal heterocycles” (E. I. du Pont de Nemours and Company, priority 2000, dated 2006):

Key:
Assay type in all cases: in vivo
[1] = tested on: corn (Zea mays); assay: Test B postemergence; settings: 13 to 15 days
Summary of the method: (§1)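 Greenhouse test: chemicals are formulated in a surfactant-containing non-phytotoxic solvent and applied either preemergence to planted seeds or postemergence to plants 2 to 18 cm tall. Response is rated visually versus controls after 13 to 15 days, 0 meaning no effect and 100 complete control.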

[2] = tested on: cocklebur (Xanthium strumarium); assay: Test B postemergence; settings: 13 to 15 days
Summary of the method: as §1

[3] = tested on: barnyardgrass (Echinochloa crus-galli); assay: Test B postemergence; settings: 13 to 15 days
Summary of the method: as §1

[4] = tested on: giant foxtail (Setaria faberii); assay: Test B postemergence; settings: 13 to 15 days
Summary of the method: as §1

[5] = tested on: wheat (Triticum aestivum); assay: Test B postemergence; settings: 13 to 15 days
Summary of the method: as §1

[6] = tested on: morning glory (Ipomoea hederacea); assay: Test B postemergence; settings: 13 to 15 days
Summary of the method: as §1

[7] = tested on: wild oat (Avena fatua); assay: Test B postemergence; settings: 13 to 15 days
Summary of the method: as §1

[8] = tested on: crabgrass (Digitaria sanguinalis); assay: Test B postemergence; settings: 13 to 15 days
Summary of the method: as §1

[9] = tested on: velvetleaf (Abutilon theophrasti); assay: Test B postemergence; settings: 13 to 15 days
Summary of the method: as §1

[10] = tested on: pigweed (Amaranthus retroflexus); assay: Test B postemergence; settings: 13 to 15 days
Summary of the method: as §1

[11] = tested on: Surinam grass (Brachiaria decumbens); assay: Test B postemergence; settings: 13 to 15 days
Summary of the method: as §1

[12] = tested on: Sunflower; assay: Test C preemergence; settings: Rate 250 g/ha, visual evaluation after 12 to 14 days
[13] = tested on: corn (Zea mays); assay: Test C preemergence
Summary of the method: (§2)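 Visual injury scores of 0–100, with 100 meaning complete control, were given relative to controls after 12–14 days in the greenhouse. Treatments used a surfactant-containing non-phytotoxic solvent formulation, sprayed on seeded pots preemergence or on 1–4-leaf plants of 2–18 cm postemergence.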

[14] = tested on: morningglory (Ipomoea hederacea); assay: Test C preemergence
Summary of the method: as §2

[15] = tested on: common ragweed (Ambrosia elatior); assay: Test C preemergence
Summary of the method: as §2

[16] = tested on: lambsquarters (Chenopodium album); assay: Test C preemergence
Summary of the method: as §2

[17] = tested on: yellow nutsedge (Cyperus esculentus); assay: Test C preemergence
Summary of the method: as §2

[18] = tested on: goosegrass (Eleusine indica); assay: Test C preemergence
Summary of the method: as §2

[19] = tested on: Nightshade; assay: Test C preemergence
[20] = tested on: johnsongrass (Sorghum halepense); assay: Test C preemergence
Summary of the method: as §2

[21] = tested on: velvetleaf (Abutilon theophrasti); assay: Test C preemergence
Summary of the method: as §2

[22] = tested on: Sunflower; assay: Test C preemergence
[23] = Rate 125 g/ha, scale 0 (no effect) to 100 (complete control)
[24] = Rate 500 g/ha, scale 0 to 100, 0 is no effect, 100 is complete control
[25] = Preemergence, Rate 500 g/ha, scale 0 to 100
[26] = Rate 62 g/ha, scale 0 to 100, 0 no effect, 100 complete control
[27] = preemergence, Rate 31 g/ha, scale 0 to 100
[28] = preemergence, Rate 250 g/ha, visual evaluation after 12 to 14 days
[29] = preemergence, Rate 125 g/ha, scale 0 to 100, 0 no effect, 100 complete control

CCC(CC)c1ccn(C2SCN(c3cccc(C(F)(F)F)c3)C2=O)n1 (stereo not drawn) [Compound 25]
60: Plant response rating, Corn [1, 24] | Plant response rating, Cocklebur [2, 23] | Plant response rating, Crabgrass [8, 23]
30: Plant response rating, Morningglory [14, 29] | Plant response rating, Johnsongrass [20, 27] | Plant response rating, Velvetleaf [21, 26] | Plant response rating, Sunflower [22, 26]
70: Plant response rating, Cocklebur [2, 24] | Plant response rating, Pigweed [10, 23] | Plant response rating (0 to 100), Sunflower [12] | Plant response rating, Ragweed, Common [15, 26] | Plant response rating (0 to 100), Ragweed, Common [15, 28] | Plant response rating, Ragweed, Common [15, 29] | Plant response rating, Johnsongrass [20, 26] | Plant response rating (0 to 100), Velvetleaf [21, 28] | Plant response rating, Sunflower ([22]; Rate 500 g/ha, scale 0 to 100)
40: Plant response rating, Surinam grass [11, 24] | Plant response rating (0 to 100), Nutsedge [17, 28]
20: Plant response rating, Foxtail, Giant [4, 23] | Plant response rating, Velvetleaf [9, 24] | Plant response rating (0 to 100), Corn [13, 28] | Plant response rating, Corn [13, 29] | Plant response rating, Morningglory [14, 26] | Plant response rating, Nightshade ([19]; Rate 31 g/ha, scale 0 to 100) | Plant response rating, Velvetleaf [21, 25]
0: Plant response rating, Corn [1, 23] | Plant response rating, Wheat [5, 23] | Plant response rating, Wheat [5, 24] | Plant response rating, Wild Oat [7, 23] | Plant response rating, Wild Oat [7, 24] | Plant response rating, Velvetleaf [9, 23] | Plant response rating, Surinam grass [11, 23] | Plant response rating, Corn [13, 26] | Plant response rating, Corn [13, 27] | Plant response rating, Morningglory [14, 27] | Plant response rating, Ragweed, Common [15, 27] | Plant response rating, Nutsedge [17, 25] | Plant response rating, Nutsedge [17, 26] | Plant response rating, Nutsedge [17, 27] | Plant response rating, Nutsedge [17, 29] | Plant response rating, Velvetleaf [21, 27] | Plant response rating, Velvetleaf [21, 29]
80: Plant response rating, Foxtail, Giant [4, 24]
100: Plant response rating, Barnyardgrass [3, 23] | Plant response rating, Barnyardgrass [3, 24] | Plant response rating, Morningglory [6, 24] | Plant response rating, Pigweed [10, 24] | Plant response rating (0 to 100), Morningglory [14, 28] | Plant response rating, Ragweed, Common [15, 25] | Plant response rating, Lambsquarters [16, 25] | Plant response rating, Lambsquarters [16, 26] | Plant response rating, Lambsquarters [16, 27] | Plant response rating (0 to 100), Lambsquarters [16, 28] | Plant response rating, Lambsquarters [16, 29] | Plant response rating, Goosegrass [18, 25] | Plant response rating, Goosegrass [18, 26] | Plant response rating, Goosegrass [18, 27] | Plant response rating (0 to 100), Goosegrass [18, 28] | Plant response rating, Goosegrass [18, 29] | Plant response rating, Nightshade [19, 26] | Plant response rating, Nightshade ([19]; Rate 125 g/ha, scale 0 to 100, 0 no effect, 100 complete control) | Plant response rating, Nightshade ([19]; Rate 500 g/ha, scale 0 to 100) | Plant response rating, Johnsongrass [20, 25]
50: Plant response rating, Corn [13, 25]
90: Plant response rating, Morningglory [6, 23] | Plant response rating, Crabgrass [8, 24] | Plant response rating, Morningglory [14, 25] | Plant response rating (0 to 100), Johnsongrass [20, 28] | Plant response rating, Johnsongrass [20, 29]
